Experimental data as given in US20210177982A1, “MUCUS-PENETRATING PEPTIDES, DELIVERY VEHICLES AND METHODS OF THERAPY” (DNALite Therapeutics, Inc., priority 2018, published 2021).
Ends that are not written are not given here.

Tests used:
[1] = pH 7 (No salt); cited from earlier work
[2] = 25° C., RP-HPLC, Ac-X-G-A-K-G-A-G-V-G L-amide; cited from earlier work
[3] = test system: mucin from porcine stomach; test: Peptide mucin interaction assay (dynamic light scattering); format: binding; details: peptide conjugated to DSPE-PEG2k-DBCO at 0.08% mol on MVL5/DOPC/Chol base system with DNA; 0.5 mg/mL mucin, sample:mucin 5:2
Description: DSPE-PEG2k-DBCO (Avanti Polar Lipids) was hydrated in water and agitated to form a transparent solution. Synthesized peptides with a lysine containing an azide on the N-terminus were conjugated to it. 2.5× moles of the azide peptides were added to the lipid mix and were left to react overnight. 10× moles of sodium azide were added to the reaction to quench it.
Thin film hydration was used to make a lipid base system composed of MVL5/DOPC/Chol (30/60/10% mol). Briefly, the lipids were dissolved in chloroform: methanol (9:1) and mixed. The lipids were then dried using a rotovap and hydrated in a HEPES-glucose buffer (10 mM HEPES, 230 mM Glucose, pH 7.4) for a final concentration of 1 mM. The lipid suspension was extruded through a 200 nm pore size filter for 20 passes using the NanoSizer MINI (T&T Scientific Corporation, Tennessee). An appropriate amount of DNA was added to the lipid base system for a charge ratio of +3 (assuming MVL5 has a charge ratio of +3 at neutral pH) and the solution was mixed thoroughly and let rest for 20 min. DSPE-PEG2k-DBCO conjugated peptides were added to the base system for a final lipid concentration of 0.08% mol. DSPE-SS-PEG2k was added to the base system for a final lipid concentration of 5% mol. The solutions were incubated for 1 h at 60° C.
For each sample, purified 0.5 mg/mL mucin from porcine stomach (Sigma Aldrich) was added to the sample at a sample:mucin volume ratio of 5:2. Dynamic light scattering was used to measure changes in light scattering in the presence of and without mucin for each sample. […] Thus SEQ ID NO. […] Thus SEQ ID NO. […] Thus SEQ ID NO. […] 4 conjugated systems, where peak shifting was not observed in the presence of mucin. Thus SEQ ID NO. […] 5 conjugated systems where peak shifting was not observed in the presence of mucin. Thus SEQ ID NO. […] 6 conjugated systems where peak shifting was not observed in the presence of mucin. Thus SEQ ID NO. […] FIG. 11 show SEQ ID NO. 7 conjugated systems where peak shifting was not observed in the presence of mucin. Thus SEQ ID NO. […] Thus SEQ ID NO. […] Thus SEQ ID NO. […] Thus, SEQ ID NO. […] Thus SEQ ID NO. […] FIG. 16 show SEQ ID NO. […] Thus SEQ ID NO.

| Compound | Fauchere Score [1] | ΔtR(Gly), pH 2, 20 mM H3PO4 [2] | ΔtR(Gly), pH 2, 20 mM TFA [2] | ΔtR(Gly), pH 5, 10 mM PO4 Buffer [2] | ΔtR(Gly), pH 7, 10 mM PO4 Buffer +50 mM NaCl [2] | ΔtR(Gly), pH 7, 10 mM PO4 Buffer +50 mM NaClO4 [2] | ΔtR(Gly), pH 7, 10 mM PO4 Buffer, No Salt [2] | interaction with mucin (shift in DLS light intensity peak) [3] |
| --- | --- | --- | --- | --- | --- | --- | --- | --- |
| C[C@H](N)C(=O)O [Ala] | 0.3 | 3.6 | 2.8 | 3.3 | 4.1 | 3.4 | 3.9 |  |
| N=C(N)NCCC[C@H](N)C(=O)O [Arg] | −1.010 | −5.0 | 0.6 | −3.7 | 4.1 | 6.4 | 3.9 |  |
| NC(=O)C[C@H](N)C(=O)O [Asn] | −0.600 | 0.0 | −0.6 | 0.0 | 1.0 | 30.8 | 0.5 |  |
| N[C@@H](CC(=O)O)C(=O)O [Asp] | −0.770 | 2.2 | 1.6 | −1.0 | −0.8 | −7.6 | −0.9 |  |
| NC(=O)CC[C@H](N)C(=O)O [Gln] | −0.220 | 0.5 | 0.6 | 0.6 | 1.6 | 0.0 | 0.5 |  |
| N[C@@H](CCC(=O)O)C(=O)O [Glu] | −0.640 | 3.6 | 2.8 | −0.5 | −0.4 | −7.1 | −0.9 |  |
| NCC(=O)O [Gly, Glycine] | 0 | 0.0 | 0.0 | 0.0 | 0.0 | 0.0 | 0.0 |  |
| N[C@@H](Cc1c[nH]cn1)C(=O)O [His] | 0.130 | −7.0 | 0.0 | −5.1 | 4.7 | 3.4 | 3.4 |  |
| CC[C@H](C)[C@H](N)C(=O)O [Ile] | 1.8 | 21.3 | 21.4 | 22.2 | 22.8 | 23.0 | 22.4 |  |
| CC(C)C[C@H](N)C(=O)O [Leu] | 1.7 | 23.4 | 23.3 | 24.1 | 24.6 | 25.1 | 24.2 |  |
| NCCCC[C@H](N)C(=O)O [Lys] | −0.990 | −7.0 | 2.8 | −3.7 | −2.0 | 3.4 | −1.1 |  |
| CSCC[C@H](N)C(=O)O [Met] | 1.230 | 16.1 | 15.7 | 16.4 | 17.3 | 16.8 | 16.3 |  |
| YPYDANHTRSPT (not fully specified (N-terminus)) [SEQ ID NO. 10] |  |  |  |  |  |  |  | found to be interacting with mucin |
